Measured values: ChEMBL document CHEMBL1140893, “Cancer preventive agents. Part 8: Chemopreventive effects of stevioside and related compounds” (Bioorg Med Chem, 2009)
Blank lines part the entries; values can stand above or below the compound they belong to.

Tests used:
[1] = Cytotoxicity against human Raji cells assessed as cell viability at 100 mol ratio by trypan blue staining; type: cell-based; conditions: read-out: Activity
[2] = Cytotoxicity against human Raji cells assessed as cell viability at 500 mol ratio by trypan blue staining; type: cell-based; conditions: read-out: Activity
[3] = Cytotoxicity against human Raji cells assessed as cell viability at 10 mol ratio by trypan blue staining; type: cell-based; conditions: read-out: Activity
Raji [4] = test: Inhibition of TPA-induced EBV-early antigen activation in human Raji cells at 10 mol ratio after 48hrs by indirect immunofluorescence technique relative to control; type: cell-based; parameters: scale not given: the % may be the effect or the level left; conditions: human gammaherpesvirus 4
[5] = Inhibition of TPA-induced EBV-early antigen activation in human Raji cells after 48hrs by indirect immunofluorescence technique; type: cell-based, human gammaherpesvirus 4
Mus musculus [6] = species on record: Mus musculus; test: Reduction in peroxynitrite-induced/TPA-promoted number of skin papillomas in Sencar mouse after 20 weeks; type: functional; parameters: scale not given: the % may be the effect or the level left
Raji [7] = test: Inhibition of TPA-induced EBV-early antigen activation in human Raji cells at 100 mol ratio after 48hrs by indirect immunofluorescence technique relative to control; type: cell-based; parameters: scale not given: the % may be the effect or the level left; conditions: human gammaherpesvirus 4
[8] = Cytotoxicity against human Raji cells assessed as cell viability at 1000 mol ratio by trypan blue staining; type: cell-based; conditions: read-out: Activity
Raji [9] = test: Inhibition of TPA-induced EBV-early antigen activation in human Raji cells at 1000 mol ratio after 48hrs by indirect immunofluorescence technique relative to control; type: cell-based; parameters: scale not given: the % may be the effect or the level left; conditions: human gammaherpesvirus 4
Raji [10] = test: Inhibition of TPA-induced EBV-early antigen activation in human Raji cells at 500 mol ratio after 48hrs by indirect immunofluorescence technique relative to control; type: cell-based; parameters: scale not given: the % may be the effect or the level left; conditions: human gammaherpesvirus 4
Mus musculus [11] = test: Inhibition of DMBA-induced/TPA-promoted carcinogenesis in mouse assessed as number of skin papillomas per mouse at 85 nmol administered 1 hr before TPA treatment measured after 20 weeks; type: functional
Mus musculus [12] = test: Inhibition of DMBA-induced/TPA-promoted carcinogenesis in mouse assessed as reduction in skin papillomas bearing mouse at 85 nmol administered 1 hr before TPA treatment measured after 20 weeks; type: functional, organism-based; parameters: Activity: scale not given: the % may be the effect or the level left
Mus musculus [13] = test: Inhibition of DMBA-induced/TPA-promoted carcinogenesis in mouse assessed as number of skin papillomas per mouse at 85 nmol administered 1 hr before TPA treatment measured after 10 weeks; type: functional
Mus musculus [14] = test: Inhibition of DMBA-induced/TPA-promoted carcinogenesis in mouse assessed as number of skin papillomas per mouse at 85 nmol administered 1 hr before TPA treatment measured after 15 weeks; type: functional
Mus musculus [15] = test: Inhibition of DMBA-induced/TPA-promoted carcinogenesis in mouse assessed as reduction in skin papillomas bearing mouse at 85 nmol administered 1 hr before TPA treatment measured after 15 weeks; type: functional; parameters: scale not given: the % may be the effect or the level left
Mus musculus [16] = test: Inhibition of DMBA-induced/TPA-promoted carcinogenesis in mouse assessed as reduction in skin papillomas bearing mouse at 85 nmol administered 1 hr before TPA treatment measured after 10 weeks; type: functional; parameters: scale not given: the % may be the effect or the level left
Mus musculus [17] = test: Inhibition of peroxynitrite-induced/TPA-promoted carcinogenesis in Sencar mouse assessed as reduction in skin papillomas bearing mouse at 85 nmol administered 1 hr before TPA treatment measured after 20 weeks; type: functional; parameters: scale not given: the % may be the effect or the level left
Mus musculus [18] = test: Inhibition of peroxynitrite-induced/TPA-promoted carcinogenesis in Sencar mouse assessed as number of skin papillomas per mouse at 85 nmol administered 1 hr before TPA treatment measured after 15 weeks; type: functional
Mus musculus [19] = test: Inhibition of peroxynitrite-induced/TPA-promoted carcinogenesis in Sencar mouse assessed as reduction in skin papillomas bearing mouse at 85 nmol administered 1 hr before TPA treatment measured after 11 weeks; type: functional; parameters: scale not given: the % may be the effect or the level left
Mus musculus [20] = test: Inhibition of peroxynitrite-induced/TPA-promoted carcinogenesis in Sencar mouse assessed as reduction in skin papillomas bearing mouse at 85 nmol administered 1 hr before TPA treatment measured after 15 weeks; type: functional; parameters: scale not given: the % may be the effect or the level left
Mus musculus [21] = test: Inhibition of peroxynitrite-induced/TPA-promoted carcinogenesis in Sencar mouse assessed as number of skin papillomas per mouse at 85 nmol administered 1 hr before TPA treatment measured after 10 weeks; type: functional
Mus musculus [22] = test: Inhibition of peroxynitrite-induced/TPA-promoted carcinogenesis in Sencar mouse assessed as number of skin papillomas per mouse at 85 nmol administered 1 hr before TPA treatment measured after 20 weeks; type: functional
Mus musculus [23] = test: Inhibition of peroxynitrite-induced/TPA-promoted carcinogenesis in Sencar mouse assessed as reduction in skin papillomas bearing mouse at 85 nmol administered 1 hr before TPA treatment measured after 10 weeks; type: functional; parameters: scale not given: the % may be the effect or the level left
Mus musculus [24] = test: Inhibition of DMBA-induced/TPA-promoted carcinogenesis in mouse assessed as reduction in skin papillomas bearing mouse at 85 nmol administered 1 hr before TPA treatment measured after 9 weeks; type: functional; parameters: scale not given: the % may be the effect or the level left
Mus musculus [25] = test: Inhibition of peroxynitrite-induced/TPA-promoted carcinogenesis in Sencar mouse assessed as number of skin papillomas per mouse at 85 nmol administered 1 hr before TPA treatment measured after 11 weeks; type: functional

Compound: COc1cc(/C=C/C(=O)CC(=O)/C=C/c2ccc(O)c(OC)c2)ccc1O [CURCUMIN]
viability at 100 mol ratio [1]: > 80%
viability at 500 mol ratio [2]: > 80%
viability at 10 mol ratio [3]: > 80%
Activity (Raji [4]): 100%
IC50 [5]: 331 mol ratio/32 pmol TPA
Activity (Mus musculus [6]): 45.1%
Activity (Raji [7]): 81.7%
viability at 1000 mol ratio [8]: 60%
Activity (Raji [9]): 0%
Activity (Raji [10]): 22.8%

Compound: C=C1C[C@@]23CC[C@H]4[C@@](C)(CCC[C@@]4(C)C(=O)O[C@@H]4O[C@H](CO)[C@@H](O)[C@H](O)[C@H]4O)[C@@H]2CC[C@]1(O[C@@H]1O[C@H](C)[C@@H](O)[C@H](O)[C@@H]1O[C@@H]1O[C@H](CO)[C@@H](O)[C@H](O)[C@H]1O)C3 [DULCOSIDE A]
Activity (Raji [4]): 92.5%
Activity (Raji [7]): 73%
Activity (Raji [9]): 6.7%
Activity (Raji [10]): 40.9%

Compound: CC1(C)[C@@H](O[C@H]2O[C@H](C(=O)O)[C@@H](O)[C@H](O)[C@H]2O[C@@H]2O[C@H](C(=O)O)[C@@H](O)[C@H](O)[C@H]2O)CC[C@]2(C)[C@H]3C(=O)C=C4[C@@H]5C[C@@](C)(C(=O)O)CC[C@]5(C)CC[C@@]4(C)[C@]3(C)CC[C@@H]12 [GLYCYRRHIZIN]
Activity (Mus musculus [11]): 6.2
viability at 100 mol ratio [1]: > 80%
viability at 500 mol ratio [2]: > 80%
viability at 10 mol ratio [3]: > 80%
Activity (Raji [4]): 100%
IC50 [5]: 381 mol ratio/32 pmol TPA
Activity (Mus musculus [12]): 94%
Activity (Mus musculus [13]): 2.8
Activity (Mus musculus [14]): 4.6
Activity (Raji [7]): 69.2%
viability at 1000 mol ratio [8]: 60%
Activity (Mus musculus [15]): 60%
Activity (Raji [9]): 12.5%
Activity (Raji [10]): 36.9%
Activity (Mus musculus [16]): 50%

Compound: C=C1C[C@@]23CC[C@H]4[C@@](C)(CCC[C@@]4(C)C(=O)O[C@@H]4O[C@H](CO)[C@@H](O)[C@H](O)[C@H]4O)[C@@H]2CC[C@]1(O[C@@H]1O[C@H](CO)[C@@H](O)[C@H](O[C@@H]2O[C@H](CO)[C@@H](O)[C@H](O)[C@H]2O)[C@H]1O[C@@H]1O[C@H](CO)[C@@H](O)[C@H](O)[C@H]1O)C3 [REBAUDIOSIDE A]
viability at 100 mol ratio [1]: > 80%
viability at 500 mol ratio [2]: > 80%
viability at 10 mol ratio [3]: > 80%
viability at 1000 mol ratio [8]: 60%

Compound: C=C1C[C@@]23CC[C@H]4[C@@](C)(CCC[C@@]4(C)C(=O)O[C@@H]4O[C@H](CO)[C@@H](O)[C@H](O)[C@H]4O)[C@@H]2CC[C@]1(O[C@@H]1O[C@H](CO)[C@@H](O)[C@H](O[C@@H]2O[C@H](CO)[C@@H](O)[C@H](O)[C@H]2O)[C@H]1O[C@@H]1O[C@@H](C)[C@H](O)[C@@H](O)[C@H]1O)C3 [REBAUDIOSIDE C]
viability at 100 mol ratio [1]: > 80%
viability at 500 mol ratio [2]: > 80%
viability at 10 mol ratio [3]: > 80%
viability at 1000 mol ratio [8]: 60%

The next lines start with results.

IC50 [5]: 321 mol ratio/32 pmol TPA
Compound: C[C@@]12CC[C@@H]3[C@@](CC[C@H]4[C@@]3(C)CCC[C@@]4(C)C(=O)O)(CC1=O)C2 [ISOSTEVIOL]
Activity (Mus musculus [11]): 5
viability at 100 mol ratio [1]: > 80%
viability at 500 mol ratio [2]: > 80%
viability at 10 mol ratio [3]: > 80%
Activity (Mus musculus [17]): 73%
Activity (Raji [4]): 90.6%
Activity (Mus musculus [18]): 2.7
Activity % (Mus musculus [12]): 87%
Activity (Mus musculus [13]): 1.8
Activity (Mus musculus [14]): 3.6
Activity (Mus musculus [6]): 46.2%
Activity (Raji [7]): 73%
Activity (Mus musculus [19]): 33%
Activity (Mus musculus [15]): 60%
Activity (Mus musculus [20]): 53%
Activity (Mus musculus [21]): 1.6
Activity (Raji [9]): 1.9%
Activity (Mus musculus [22]): 4.3
Activity (Raji [10]): 34.2%
Activity (Mus musculus [16]): 20%

IC50 [5]: 450 mol ratio/32 pmol TPA
Compound: C=C1C[C@@]23CC[C@H]4[C@@](C)(CCC[C@@]4(C)C(=O)O[C@@H]4O[C@H](CO)[C@@H](O)[C@H](O)[C@H]4O)[C@@H]2CC[C@]1(O[C@@H]1O[C@H](CO)[C@@H](O)[C@H](O)[C@H]1O)C3 [RUBUSOSIDE]
viability at 100 mol ratio [1]: > 80%
viability at 500 mol ratio [2]: > 80%
viability at 10 mol ratio [3]: > 80%
Activity (Raji [4]): 94.2%
Activity (Raji [7]): 76.8%
viability at 1000 mol ratio [8]: 60%
Activity (Raji [9]): 12.5%
Activity (Raji [10]): 44.2%

IC50 [5]: 340 mol ratio/32 pmol TPA
Compound: C=C1C[C@@]23CC[C@H]4[C@@](C)(CCC[C@@]4(C)C(=O)O)[C@@H]2CC[C@]1(O)C3 [STEVIOL]
Activity (Mus musculus [11]): 5.4
viability at 100 mol ratio [1]: > 80%
viability at 500 mol ratio [2]: > 80%
viability at 10 mol ratio [3]: > 80%
Activity (Mus musculus [17]): 93%
Activity (Raji [4]): 91.2%
Activity (Mus musculus [18]): 3.5
Activity (Mus musculus [12]): 87%
Activity (Mus musculus [13]): 1.8
Activity (Mus musculus [23]): 27%
Activity (Mus musculus [14]): 3.7
Activity (Mus musculus [6]): 44.4%
Activity (Raji [7]): 74.1%
viability at 1000 mol ratio [8]: 60%
Activity (Mus musculus [15]): 60%
Activity (Mus musculus [20]): 67%
Activity (Mus musculus [21]): 2.3
Activity (Raji [9]): 2.1%
Activity (Mus musculus [22]): 4.5
Activity (Raji [10]): 35.6%
Activity (Mus musculus [16]): 27%

IC50 [5]: 360 mol ratio/32 pmol TPA
Compound: C=C1C[C@@]23CC[C@H]4[C@@](C)(CCC[C@@]4(C)C(=O)O[C@@H]4O[C@H](CO)[C@@H](O)[C@H](O)[C@H]4O)[C@@H]2CC[C@]1(O[C@@H]1O[C@H](CO)[C@@H](O)[C@H](O)[C@H]1O[C@@H]1O[C@H](CO)[C@@H](O)[C@H](O)[C@H]1O)C3 [STEVIOSIDE]
viability at 100 mol ratio [1]: > 80%
viability at 500 mol ratio [2]: > 80%
viability at 10 mol ratio [3]: > 80%
Activity (Mus musculus [17]): 87%
Activity (Raji [4]): 89.3%
Activity (Mus musculus [18]): 3
Activity (Mus musculus [12]): 93%
Activity (Mus musculus [24]): 20%
Activity (Mus musculus [6]): 45%
Activity (Raji [7]): 67.4%
Activity (Mus musculus [25]): 2
Activity (Mus musculus [19]): 40%
Activity (Mus musculus [15]): 53%
Activity (Mus musculus [20]): 53%
Activity (Raji [9]): 3.2%
Activity (Mus musculus [22]): 4.4
Activity (Raji [10]): 36.9%
